{"source": "ChEMBL document CHEMBL5126499", "about": "“Small molecule therapeutics for tauopathy in Alzheimer's disease: Walking on the path of most resistance” (Eur J Med Chem, 2021)", "key": {"[1]": {"assay": "Inhibition of HSP70 in human HeLa C3 cells overexpressing tau protein assessed as reduction in tau protein level measured after 24 hrs by Western blot analysis", "type": "cell-based", "details": "HeLa C3, 24 h"}, "[2]": {"assay": "Inhibition of human HSP70 ATPase activity at incubated for 3 hrs by malachite green reagent based HTS analysis"}, "[3]": {"organism": "Homo sapiens", "assay": "Inhibition of human HSP70 ATPase activity at 10 uM incubated for 3 hrs by malachite green reagent based HTS analysis relative to control"}, "[4]": {"assay": "Cmax in mouse brain at 10 mg/kg, ip", "type": "ADME, organism-based", "set-up": "dose 10 mg/kg, route ip", "details": "in vivo"}, "[5]": {"assay": "Tmax in mouse brain at 10 mg/kg, ip", "type": "ADME, organism-based"}, "[6]": {"assay": "Reduction of tau protein level in human HeLa C3 cells transfected with human 4R0N tau at 30 uM incubated for 24 hrs by Western blot analysis relative to control", "type": "functional", "set-up": "scale not given: the % may be the effect or the level left"}, "[7]": {"system": "HeLa C3", "assay": "Inhibition of HSP70 in human HeLa C3 cells overexpressing tau protein assessed as reduction in tau protein level at 0.025 to 9 uM measured after 24 hrs by Western blot analysis relative to control", "type": "cell-based", "details": "dose 0.025-9 µM"}, "[8]": {"assay": "Inhibition of HSP70 in human SK-N-BE(2)-M17 cells overexpressing tau protein assessed as reduction in tau protein level measured after 24 hrs by Western blot analysis", "type": "cell-based", "details": "SK-N-BE(2)-M17, 24 h"}, "[9]": {"system": "SK-N-BE(2)-M17", "assay": "Inhibition of HSP70 in human SK-N-BE(2)-M17 cells overexpressing tau protein assessed as reduction in tau protein level at 0.025 to 9 uM measured after 24 hrs by Western blot analysis relative to control", "type": "cell-based", "details": "dose 0.025-9 µM"}, "[10]": {"system": "Drosophila", "assay": "Inhibition of tau protein accumulation in Drosophila larvae eye assessed as reduction in tau protein level at 0.75 mg/ml dripped every other day by immunohistochemistry", "type": "functional"}, "[11]": {"assay": "Induction of SirT2 production in mouse N2a cells transfected with ApoE4 assessed as increase in SirT2 levels by sandwich ELISA", "type": "functional, cell-based"}}}
{"smiles": "CCn1c(=O)/c(=C2\\Sc3ccccc3N2C)s/c1=C\\c1cccc[n+]1CC", "values": [{"measurement": "EC50", "setting": "[1]", "value": 8, "unit": "µM"}]}
{"smiles": "O=c1c(O)c(-c2cc(O)c(O)c(O)c2)oc2cc(O)cc(O)c12", "note": "[MYRICETIN]", "values": [{"measurement": "IC50", "setting": "[2]", "value": 12, "unit": "µM"}, {"measurement": "inhibition", "setting": "[3]", "value": "> 80", "unit": "%"}]}
{"smiles": "CNc1ccc2nc3ccc(N)cc3[s+]c2c1", "note": "[AZURE C]", "values": [{"measurement": "IC50", "setting": "[2]", "value": 11, "unit": "µM"}, {"measurement": "inhibition", "setting": "[3]", "value": "> 80", "unit": "%"}]}
{"smiles": "CN(C)c1ccc2nc3ccc(N(C)C)cc3[s+]c2c1", "note": "[METHYLENE BLUE ANHYDROUS]", "values": [{"measurement": "IC50", "setting": "[2]", "value": 83, "unit": "µM"}]}
{"smiles": "CCNC1=NC(c2ccc(F)cc2)NC(=O)N1", "note": "(stereo unspecified)", "values": [{"measurement": "Cmax", "setting": "[4]", "value": 1.5, "unit": "ng/mg"}, {"measurement": "Tmax", "setting": "[5]", "value": 30, "unit": "min"}]}
{"smiles": "CCn1c(=O)/c(=C2\\Sc3cc(C(F)(F)F)ccc3N2C)s/c1=C\\c1ccccn1", "values": [{"measurement": "Activity", "setting": "[6]", "value": 50, "unit": "%"}]}
{"smiles": "CN(C)c1ccc2nc3ccc(=[N+](C)C)cc-3sc2c1", "values": [{"measurement": "inhibition", "setting": "[3]", "value": "> 80", "unit": "%"}]}
{"smiles": "CCn1c(=O)/c(=C2\\Sc3ccccc3N2C)s/c1=C\\c1cccc[n+]1C", "values": [{"measurement": "inhibition", "setting": "[7]", "value": 75, "unit": "%"}, {"measurement": "EC50", "setting": "[8]", "value": 1500, "unit": "nM"}, {"measurement": "inhibition", "setting": "[9]", "value": 75, "unit": "%"}, {"measurement": "EC50", "setting": "[1]", "value": 0.9, "unit": "µM"}]}
{"smiles": "O=C1C(Cl)=C(N[C@@H](Cc2c[nH]c3ccccc23)C(=O)O)C(=O)c2ccccc21", "values": [{"measurement": "inhibition at 750 µg/mL", "setting": "[10]", "value": 70, "unit": "%"}]}
{"smiles": "CC(N)C(=O)OC(C)(C)Cc1ccc(Cl)cc1", "note": "(stereo unspecified) [ALAPROCLATE]", "values": [{"measurement": "EC50", "setting": "[11]", "value": 2000, "unit": "nM"}]}
